Holding throughout (assay type): cell-based
Assay [1] concerns the target T1, BRCA1: ER complex (Homo sapiens, UniProt P03372).
T1 construct: endogenous in cells; host or cells: MCF-7
Briefly: immunoprecipitation-Western blotting of BRCA1:ER complex in MCF-7 cells. Here is the method: Figure 7 Compound 4631-P/1 disrupts the BRCA1/ER interaction in MCF-7 cells A., B. MCF-7 cells were incubated with the indicated with compound 4631-P/1 (1 or 20 μM) or vehicle only (DMSO) plus E2 (10 nM) for 24 hr; and the cells were harvested for immunoprecipitation of ER (A) or BRCA1 (B), followed by Western blotting for ER and BRCA1. As a negative control, cells treated with vehicle (DMSO) only were subjected to an IP with normal IgG. C. Unprecipitated lysates from cells treated as in panel A were subjected to Western blotting to detect BRCA1, ER, or actin (loading control). The data shown in each panel are representative of three independent experiments.
After the indicated treatments, cells were harvested, and whole cell extracts were prepared in IP buffer [10 mM Tris-HCl (pH 7.4), 150 mM NaCl, 1 mM EDTA, 1 mM EGTA, 1% Triton X-100, 0.5% IGEPAL CA-630 (Sigma), 10% glycerol, 1 mM sodium orthovanadate, and protease inhibitor cocktail (Santa Cruz)] [11, 18]. Each IP was carried out using 2-μg antibody and 500-μg extract protein. […] For each experiment, a control IP using an equal quantity of normal mouse or rabbit IgG (Santa Cruz) was carried out. […]
A general note: In western blotting, separated proteins are transferred to a membrane and probed.

The target of assay [2] is T2, ER Arg394Ala (Homo sapiens, UniProt P03372, R394A).
T2 construct: expressed in transfected cells; host or cells: MDA-MB-231
T2 sequence (P03372 whole entry R394A): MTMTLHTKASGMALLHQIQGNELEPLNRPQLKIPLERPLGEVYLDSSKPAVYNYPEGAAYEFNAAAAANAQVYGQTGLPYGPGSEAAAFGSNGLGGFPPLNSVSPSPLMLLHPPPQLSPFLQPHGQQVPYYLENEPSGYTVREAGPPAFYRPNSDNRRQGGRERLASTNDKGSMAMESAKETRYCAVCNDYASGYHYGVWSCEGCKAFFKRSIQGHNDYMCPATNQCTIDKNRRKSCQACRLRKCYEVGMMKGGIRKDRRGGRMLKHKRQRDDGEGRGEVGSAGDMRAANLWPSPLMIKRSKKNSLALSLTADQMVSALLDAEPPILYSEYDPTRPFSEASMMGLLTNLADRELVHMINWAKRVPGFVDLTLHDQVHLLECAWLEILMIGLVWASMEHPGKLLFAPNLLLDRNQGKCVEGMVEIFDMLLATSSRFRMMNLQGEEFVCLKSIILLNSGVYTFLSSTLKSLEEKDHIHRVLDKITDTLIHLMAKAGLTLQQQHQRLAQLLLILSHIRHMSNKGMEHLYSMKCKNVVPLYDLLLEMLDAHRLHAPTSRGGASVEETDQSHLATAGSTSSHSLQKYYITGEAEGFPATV
As to the kind of experiment: ER mutation analysis, ERE-TK-Luc reporter in transfected MDA-MB-231 cells. The note with it: MDA-MB-231 transfected with mutant ER, E2 10 nM, 24 hr. From the text:
(§1) B., C. Panels B and C show a comparison of the ER interaction of one of our original series of compounds (A7) (B) and one new compounds (48693-K/1) (C). ER is represented by gray ribbon and its residues interacting with the compounds are drawn with wireframe and labeled. […] The hydrogen bond interaction with ARG 394 is shown in green line. […] The cells were harvested for luciferase assays. Luciferase values are expressed as a percent of the +E2 vehicle control and are means ± SEMs of four wells. The data shown in panels D to G are representative of three independent experiments.
(§2) Subconfluent cells in 24-well dishes were transfected overnight with 0.25 μg of each indicated vector plus the ERE-TK-Luc reporter in serum-free DMEM containing Lipofectamine2000 (Life Technologies, Washington, DC). Total transfected DNA was kept constant by addition of control vector. The cells were washed, incubated in phenol red-free DMEM containing 5% charcoal-stripped serum (obtained from the Tissue Culture Shared Resource) (0.2 ml/well) ± E2 (10 nM) ± the indicated compound for 24-hr, and harvested for luciferase assays. For each assay condition was tested in quadrupicate. To monitor the transfection efficiency, cultures were co-transfected with plasmid pRSV-β-gal (Promega, Madison, WI) to visualize transfected cells by X-gal staining.

For assay [3], the target named is T3, ER Glu323Ala (Homo sapiens, UniProt P03372, E323A).
T3 construct: expressed in transfected cells; host or cells: MDA-MB-231
T3 sequence (P03372 whole entry E323A): as the sequence (P03372 whole entry R394A) above, with E323A, A394R counted along it
The description is as above. The note with it: MDA-MB-231 transfected with mutant ER, E2 10 nM, 24 hr.
Excerpt: as §1, §2

Assay [4] addresses T4, ER His356Ala (Homo sapiens, UniProt P03372, H356A).
T4 construct: expressed in transfected cells; host or cells: MDA-MB-231
The description is as above. The note with it: MDA-MB-231 transfected with mutant ER, E2 10 nM, 24 hr.
Excerpt: as §1, §2

Assay [5] concerns the target T5, ER Ile386Ala (Homo sapiens, UniProt P03372, I386A).
T5 construct: expressed in transfected cells; host or cells: MDA-MB-231
Described as above. Conditions: MDA-MB-231 transfected with mutant ER, E2 10 nM, 24 hr.
Excerpt: as §1, §2

For assay [6], the target named is T6, ER Ile386Ala+Leu387Ala (Homo sapiens, UniProt P03372, I386A/L387A).
T6 construct: expressed in transfected cells; host or cells: MDA-MB-231
T6 sequence (P03372 whole entry I386A/L387A): as the sequence (P03372 whole entry R394A) above, with I386A, L387A, A394R counted along it
The assay is described as above. Conditions: MDA-MB-231 transfected with mutant ER, E2 10 nM, 24 hr.
Excerpt: as §1, §2

The target in assay [7] is T7, ER Leu327Ala (Homo sapiens, UniProt P03372, L327A).
T7 construct: expressed in transfected cells; host or cells: MDA-MB-231
T7 sequence (P03372 whole entry L327A): as the sequence (P03372 whole entry R394A) above, with L327A, A394R counted along it
The description is as above. The note with it: MDA-MB-231 transfected with mutant ER, E2 10 nM, 24 hr.
Excerpt: as §1, §2

The target in assay [8] is T8, ER Leu387Ala (Homo sapiens, UniProt P03372, L387A).
T8 construct: expressed in transfected cells; host or cells: MDA-MB-231
T8 sequence (P03372 whole entry L387A): as the sequence (P03372 whole entry R394A) above, with L387A, A394R counted along it
The assay is described as above. The note with it: MDA-MB-231 transfected with mutant ER, E2 10 nM, 24 hr.
Excerpt: as §1, §2

Assay [9] has as its target T9, ER Lys449Ala (Homo sapiens, UniProt P03372, K449A).
T9 construct: expressed in transfected cells; host or cells: MDA-MB-231
Described as above. The note with it: MDA-MB-231 transfected with mutant ER, E2 10 nM, 24 hr.
Excerpt: as §1, §2

For assay [10], the target named is T10, ER Pro325Ala (Homo sapiens, UniProt P03372, P325A).
T10 construct: expressed in transfected cells; host or cells: MDA-MB-231
T10 sequence (P03372 whole entry P325A): as the sequence (P03372 whole entry R394A) above, with P325A, A394R counted along it
The description is as above. Conditions: MDA-MB-231 transfected with mutant ER, E2 10 nM, 24 hr.
Excerpt: as §1, §2

Assay [11] concerns the target T11, ER Trp393Ala (Homo sapiens, UniProt P03372, W393A).
T11 construct: expressed in transfected cells; host or cells: MDA-MB-231
Described as above. The note with it: MDA-MB-231 transfected with mutant ER, E2 10 nM, 24 hr.
Excerpt: as §1, §2

For assay [12], the target named is T12, ER-α (Homo sapiens, UniProt P03372).
T12 construct: expressed in transfected cells; host or cells: DU-145
T12 sequence (P03372 whole entry): as the sequence (P03372 whole entry R394A) above, with A394R counted along it
Briefly: E2-stimulated ER-α activity, ERE-TK-Luc reporter in transfected DU-145 cells. The note with it: DU-145 transfected with ER-α, E2 10 nM, compound 20 μM, 24 hr. Here is the method: Figure 12 Compound 35446 inhibits the activity of ER-β Subconfluent proliferating DU-145 cells in 24-well dishes were transfected overnight with the ER=α or ER=β expression vector plus the ERE-TK-Luc reporter plasmid (0.25 μg per plasmid/well), washed, and allowed to recover for several hours in fresh culture medium. The cells were then post-incubated for 24 hr to allow gene expression, after which they were treated ± E2 (10 nM) and ± compound 35446 (20 μM) (or compound B2 as a negative control) for 24 hr and assayed for luciferase activity. Luciferase activity is expressed relative to the no E2 control. Values are means ± SEMs of four replicate wells. The data shown in each panel are representative of three independent experiments.
Subconfluent cells in 24-well dishes were transfected overnight with 0.25 μg of each indicated vector plus the ERE-TK-Luc reporter in serum-free DMEM containing Lipofectamine2000 (Life Technologies, Washington, DC). Total transfected DNA was kept constant by addition of control vector. The cells were washed, incubated in phenol red-free DMEM containing 5% charcoal-stripped serum (obtained from the Tissue Culture Shared Resource) (0.2 ml/well) ± E2 (10 nM) ± the indicated compound for 24-hr, and harvested for luciferase assays. For each assay condition was tested in quadrupicate. […]

This note sets out measurements from PMC4747340, “A new class of small molecule estrogen receptor-alpha antagonists that overcome anti-estrogen resistance” (Oncotarget, 2015).

T1 sequence (P03372 whole entry, one chain of several): as the sequence (P03372 whole entry R394A) above, with A394R counted along it
T11 sequence (P03372 whole entry W393A): as the sequence (P03372 whole entry R394A) above, with W393A, A394R counted along it
T4 sequence (P03372 whole entry H356A): as the sequence (P03372 whole entry R394A) above, with H356A, A394R counted along it
T5 sequence (P03372 whole entry I386A): as the sequence (P03372 whole entry R394A) above, with I386A, A394R counted along it
T9 sequence (P03372 whole entry K449A): as the sequence (P03372 whole entry R394A) above, with A394R, K449A counted along it

Regarding `O=C(c1cc(Br)ccc1O)c1cc(Br)ccc1O` [4631-P/1], the “dissociation of the BRCA1: ER complex” value in assay [1] (MCF-7, E2 10 nM, compound 0, 1, 20 μM, 24 hr, IP-Western) was “concentration-dependent dissociation of ER and BRCA1”. In addition, the “effect on total levels of ER or BRCA1” value in assay [1] (MCF-7, Western blotting of non-precipitated lysates) was “no effect”.
A word on the IC50: it is the concentration that inhibits the measured activity by half. Read a low IC50 as inhibition by little substance. The inhibition is how much of the control response was suppressed. Low readings indicate a response near the control, high ones a response far below the control. As for `O=C(CC(c1ccccc1)N1CCCCC1)c1ccccc1` (stereo not shown) [35446-L/1, 1,3-diphenyl-3-(piperidin-1-yl)propan-1-one], the IC50 was greater than 15 µM in assay [2]; 0.9 µM in assay [3]; 0.8 µM in assay [4]; 4 µM in assay [5]; greater than 15 µM in assay [6]; 0.9 µM in assay [7]. Besides, the 50% inhibitory concentration (IC50) is 5 µM in assay [8], greater than 15 µM in assay [9], 0.9 µM in [10] and greater than 15 µM in assay [11]. This compound registered an inhibition at 20 µM in assay [12] greater than 90%.
